Assay results taken from US8754066B2, “Phenoxy derivatives as sphingosine 1-phosphate (S1P) receptor modulators” (Allergan, Inc., priority 2012, dated 2014).

Target: T1, human S1P1 receptor (Homo sapiens, UniProt P21453)
T1 construct: expressed in transfected cells; host or cells: unnamed cells stably expressing the receptor; membranes used
Assay: GTP γ35S binding assay for S1P1 activity
Type: biochemical
Conditions: activity potency from GTP γ35S binding; 5 μg membrane protein; test compounds 0.08 to 5,000 nM; 30 min at 25° C.
Method: Compounds were synthesized and tested for S1P1 activity using the GTP γ^35S binding assay. These compounds may be assessed for their ability to activate or block activation of the human S1P1 receptor in cells stably expressing the […] receptor.
GTP γ^35S binding was measured in the medium containing (mM) HEPES 25, pH 7.4, MgCl2 10, NaCl 100, dithitothreitol 0.5, digitonin 0.003%, 0.2 nM GTP γ^35S, and 5 μg membrane protein in a volume of 150 μl. Test compounds were included in the concentration range from 0.08 to 5,000 nM unless indicated otherwise. Membranes were incubated with 100 μM 5′-adenylylimmidodiphosphate for 30 min, and subsequently with 10 μM GDP for 10 min on ice. Drug solutions and membrane were mixed, and then reactions were initiated by adding GTP γ^35S and continued for 30 min at 25° C. Reaction mixtures were filtered over Whatman GF/B filters under vacuum, and washed three times with 3 mL of ice-cold buffer (HEPES 25, pH7.4, MgCl2 10 and NaCl 100). Filters were dried and mixed with scintillant, and counted for ^35S activity using a β-counter. Agonist-induced GTP γ^35S binding was obtained by subtracting that in the absence of agonist. Binding data were analyzed using a non-linear regression method. In case of antagonist assay, the reaction mixture contained 10 nM S1P in the presence of test antagonist at concentrations ranging from 0.08 to 5000 nM.
Activity potency: S1P1 receptor from GTP γ^35S: nM, (EC50),

T1 sequence (P21453 whole entry): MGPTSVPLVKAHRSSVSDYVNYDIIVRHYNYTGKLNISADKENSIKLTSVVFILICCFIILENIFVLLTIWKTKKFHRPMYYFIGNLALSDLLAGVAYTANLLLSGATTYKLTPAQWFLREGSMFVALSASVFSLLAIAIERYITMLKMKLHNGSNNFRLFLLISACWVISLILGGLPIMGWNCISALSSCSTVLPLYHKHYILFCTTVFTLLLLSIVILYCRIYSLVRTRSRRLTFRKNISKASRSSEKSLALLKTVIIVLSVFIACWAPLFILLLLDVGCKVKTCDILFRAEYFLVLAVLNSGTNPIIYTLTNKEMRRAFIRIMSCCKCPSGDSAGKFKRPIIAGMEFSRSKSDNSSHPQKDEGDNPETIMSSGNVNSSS

Structure (SMILES) | EC50 [nM]
Cc1ccc(CC(CCCOc2ccc(CNCCC(=O)O)cc2)c2ccsc2)cc1C (centres unmarked) [Compound 1, 3-[(4-{[5-(3,4-dimethylphenyl)-4-(3-thienyl)pentyl]oxy}benzyl)amino]propanoic acid] | 14
Cc1ccc(CC(CCCOc2ccc(CNCCC(=O)O)cc2)c2cccc(F)c2F)cc1C (centres unmarked) [Compound 2, 3-[(4-{[4-(2,3-difluorophenyl)-5-(3,4-dimethylphenyl)pentyl]oxy}benzyl)amino]propanoic acid] | 0.85
Cc1ccc(CC(CCCCOc2ccc(CNCCC(=O)O)cc2)c2cccc(Cl)c2)cc1C (centres unmarked) [Compound 3, 3-[(4-{[5-(3-chlorophenyl)-6-(3,4-dimethylphenyl)hexyl]oxy}benzyl)amino]propanoic acid] | 134
Cc1ccc(CC(CCCOc2ccc(CNCCC(=O)O)cc2)c2cc(F)cc(F)c2)cc1C (centres unmarked) [Compound 4, 3-[(4-{[4-(3,5-difluorophenyl)-5-(3,4-dimethylphenyl)pentyl]oxy}benzyl)amino]propanoic acid] | 17.8
Cc1ccc(CC(CCCOc2ccc(CNCCC(=O)O)cc2)c2cccc(Cl)c2)cc1C (centres unmarked) [Compound 5, 3-[(4-{[4-(3-chlorophenyl)-5-(3,4-dimethylphenyl)pentyl]oxy}benzyl)amino]propanoic acid] | 59.5
Cc1ccc(CC(CCOc2ccc(CNCCC(=O)O)cc2)c2cccc(Cl)c2)cc1C (centres unmarked) [Compound 6, 3-({4-[3-(3-chlorophenyl)-4-(3,4-dimethylphenyl)butoxy]benzyl}amino)propanoic acid] | 96.9
Cc1ccc(CC(CCOc2ccc(CNCCCP(=O)(O)O)cc2)c2cccc(Cl)c2)cc1C (centres unmarked) [Compound 11, [3-({4-[3-(3-chlorophenyl)-4-(3,4-dimethylphenyl)butoxy]benzyl}amino)propyl]phosphonic acid] | 7.44

Results, then the molecule that gave them:

EC50 [nM] | Structure (SMILES)
2.08 | Cc1ccc(CC(CCCOc2ccc(CNCCCP(=O)(O)O)cc2)c2ccsc2)cc1C (centres unmarked) [Compound 7]
17.1 | Cc1ccc(CC(CCCCOc2ccc(CNCCCP(=O)(O)O)cc2)c2cccc(Cl)c2)cc1C (centres unmarked) [Compound 8, {3-[(4-{[5-(3-chlorophenyl)-6-(3,4-dimethylphenyl)hexyl]oxy}benzyl)amino]propyl}phosphonic acid]
0.01 | Cc1ccc(CC(CCCOc2ccc(CNCCCP(=O)(O)O)cc2)c2cc(F)cc(F)c2)cc1C (centres unmarked) [Compound 9, {3-[(4-{[4-(3,5-difluorophenyl)-5-(3,4-dimethylphenyl)pentyl]oxy}benzyl)amino]propyl}phosphonic acid]
0.23 | Cc1ccc(CC(CCCOc2ccc(CNCCCP(=O)(O)O)cc2)c2cccc(Cl)c2)cc1C (centres unmarked) [Compound 10, {3-[(4-{[4-(3-chlorophenyl)-5-(3,4-dimethylphenyl)pentyl]oxy}benzyl)amino]propyl}phosphonic acid]
